Assay results reported in the NIST ThermoML archive (doi:10.1016/j.jct.2019.07.011).

Test: xn = mol fraction of the nth substance listed
Conditions: Gas, Frequency=0.002 MHz, Spherical resonator

[He] [helium] + C
Conditions | speed of sound [m/s]
273.16 K, 491.07 kPa, x2 = 0.8999 | 449.8
273.16 K, 495.33 kPa, x2 = 0.95 | 438.87
273.16 K, 993.4 kPa, x2 = 0.8999 | 448.5
273.16 K, 1010.2 kPa, x2 = 0.95 | 437.11
273.16 K, 1705.3 kPa, x2 = 0.8999 | 446.82
273.16 K, 2010.6 kPa, x2 = 0.95 | 433.9
273.16 K, 2484.9 kPa, x2 = 0.8999 | 445.25
273.16 K, 2988.8 kPa, x2 = 0.95 | 431.21
273.16 K, 3490.4 kPa, x2 = 0.8999 | 443.67
273.16 K, 4423.3 kPa, x2 = 0.95 | 428.28
273.16 K, 4498.4 kPa, x2 = 0.8999 | 442.69
273.16 K, 5505.7 kPa, x2 = 0.8999 | 442.38
273.16 K, 5984.1 kPa, x2 = 0.95 | 426.79
273.16 K, 6475.9 kPa, x2 = 0.95 | 426.75
273.16 K, 6493 kPa, x2 = 0.8999 | 442.8
273.16 K, 6972.4 kPa, x2 = 0.95 | 426.96
273.16 K, 7508.1 kPa, x2 = 0.8999 | 444.07
273.16 K, 7524.3 kPa, x2 = 0.95 | 427.48
273.16 K, 8481.6 kPa, x2 = 0.8999 | 446.2
273.16 K, 8589.5 kPa, x2 = 0.95 | 429.44
273.16 K, 9521.1 kPa, x2 = 0.8999 | 449.34
273.16 K, 9523.8 kPa, x2 = 0.95 | 432.26
273.16 K, 10522 kPa, x2 = 0.8999 | 453.42
273.16 K, 10523 kPa, x2 = 0.95 | 436.5
273.16 K, 11506 kPa, x2 = 0.95 | 441.94
273.16 K, 11530 kPa, x2 = 0.8999 | 458.54
273.16 K, 12532 kPa, x2 = 0.95 | 449.01
273.16 K, 12638 kPa, x2 = 0.8999 | 465.33
273.16 K, 13317 kPa, x2 = 0.95 | 455.32
273.16 K, 13633 kPa, x2 = 0.8999 | 472.45
273.16 K, 14040 kPa, x2 = 0.95 | 461.81
273.16 K, 14537 kPa, x2 = 0.8999 | 479.7
273.16 K, 14722 kPa, x2 = 0.95 | 468.48
273.16 K, 15299 kPa, x2 = 0.95 | 474.53
273.16 K, 15351 kPa, x2 = 0.8999 | 486.78
273.16 K, 15853 kPa, x2 = 0.95 | 480.65
273.16 K, 16041 kPa, x2 = 0.8999 | 493.25
273.16 K, 16516 kPa, x2 = 0.95 | 488.34
273.16 K, 16537 kPa, x2 = 0.8999 | 498.12
273.16 K, 17032 kPa, x2 = 0.95 | 494.58
273.16 K, 17048 kPa, x2 = 0.8999 | 503.31
273.16 K, 17533 kPa, x2 = 0.95 | 500.83
273.16 K, 17548 kPa, x2 = 0.8999 | 508.55
273.16 K, 18009 kPa, x2 = 0.95 | 506.92
273.16 K, 18059 kPa, x2 = 0.8999 | 514.05
273.16 K, 18537 kPa, x2 = 0.8999 | 519.32
273.16 K, 18552 kPa, x2 = 0.95 | 514.01
273.16 K, 19088 kPa, x2 = 0.95 | 521.16
273.16 K, 19117 kPa, x2 = 0.8999 | 525.88
273.16 K, 19871 kPa, x2 = 0.95 | 531.76
300 K, 482.33 kPa, x2 = 0.8999 | 469.85
300 K, 483.64 kPa, x2 = 0.95 | 458.75
300 K, 985.69 kPa, x2 = 0.95 | 457.69
300 K, 1001 kPa, x2 = 0.8999 | 469.18
300 K, 1985.5 kPa, x2 = 0.8999 | 468.06
300 K, 1996 kPa, x2 = 0.95 | 455.8
300 K, 2984.6 kPa, x2 = 0.8999 | 467.34
300 K, 3212.7 kPa, x2 = 0.95 | 454.1
300 K, 4475.2 kPa, x2 = 0.95 | 453.09
300 K, 4487.3 kPa, x2 = 0.8999 | 467.1
300 K, 5490.1 kPa, x2 = 0.8999 | 467.58
300 K, 5513.3 kPa, x2 = 0.95 | 452.95
300 K, 6460.8 kPa, x2 = 0.95 | 453.38
300 K, 6494.8 kPa, x2 = 0.8999 | 468.59
300 K, 7011.9 kPa, x2 = 0.95 | 453.9
300 K, 7501.4 kPa, x2 = 0.8999 | 470.2
300 K, 7543 kPa, x2 = 0.95 | 454.6
300 K, 8430.8 kPa, x2 = 0.95 | 456.23
300 K, 9026.4 kPa, x2 = 0.8999 | 473.76
300 K, 9344.2 kPa, x2 = 0.95 | 458.51
300 K, 10504 kPa, x2 = 0.8999 | 478.72
300 K, 10534 kPa, x2 = 0.95 | 462.72
300 K, 11500 kPa, x2 = 0.95 | 466.77
300 K, 11505 kPa, x2 = 0.8999 | 482.86
300 K, 12492 kPa, x2 = 0.8999 | 487.56
300 K, 12507 kPa, x2 = 0.95 | 471.79
300 K, 13305 kPa, x2 = 0.95 | 476.35
300 K, 13505 kPa, x2 = 0.8999 | 493.08
300 K, 13998 kPa, x2 = 0.95 | 480.72
300 K, 14495 kPa, x2 = 0.8999 | 499.05
300 K, 14699 kPa, x2 = 0.95 | 485.51
300 K, 15302 kPa, x2 = 0.95 | 489.92
300 K, 15515 kPa, x2 = 0.8999 | 505.8
300 K, 15902 kPa, x2 = 0.95 | 494.56
300 K, 16490 kPa, x2 = 0.8999 | 512.81
300 K, 16491 kPa, x2 = 0.95 | 499.36
300 K, 16994 kPa, x2 = 0.8999 | 516.63
300 K, 17005 kPa, x2 = 0.95 | 503.74
300 K, 17511 kPa, x2 = 0.8999 | 520.69
300 K, 17525 kPa, x2 = 0.95 | 508.33
300 K, 18012 kPa, x2 = 0.8999 | 524.75
300 K, 18013 kPa, x2 = 0.95 | 512.78
300 K, 18515 kPa, x2 = 0.95 | 517.49
300 K, 18523 kPa, x2 = 0.8999 | 529
300 K, 19011 kPa, x2 = 0.95 | 522.29
300 K, 19043 kPa, x2 = 0.8999 | 533.45
300 K, 19447 kPa, x2 = 0.95 | 526.6
300 K, 19955 kPa, x2 = 0.8999 | 541.5
325 K, 473.9 kPa, x2 = 0.8999 | 487
325 K, 479.57 kPa, x2 = 0.95 | 476.04
325 K, 976.85 kPa, x2 = 0.8999 | 486.84
325 K, 979.32 kPa, x2 = 0.95 | 475.45
325 K, 1477.5 kPa, x2 = 0.8999 | 486.66
325 K, 1677.4 kPa, x2 = 0.95 | 474.76
325 K, 2455.5 kPa, x2 = 0.95 | 474.19
325 K, 2481.6 kPa, x2 = 0.8999 | 486.49
325 K, 3481.4 kPa, x2 = 0.95 | 473.83
325 K, 3486.4 kPa, x2 = 0.8999 | 486.7
325 K, 4485.5 kPa, x2 = 0.8999 | 487.28
325 K, 4486.1 kPa, x2 = 0.95 | 473.85
325 K, 5487.2 kPa, x2 = 0.8999 | 488.28
